Experimental data: patent publication US20250353848A1, “HETEROCYCLIC PAD4 INHIBITORS” (Celgene Corporation, priority 2022, published 2025)

Columns and labels:
[1] = molecular target: T1, hPAD4 enzyme (Homo sapiens, UniProt Q9UM07); assay: RFMS Assay 2 (rapid-fire mass spectrum PAD4 inhibition assay, peptide substrate); assay type: biochemical; conditions: 35 nM recombinant human PAD4, substrate TSTGGRQGSHH, room temperature for 30 minutes; read-out: human PAD4 (hPAD4) IC50, RFMS Assay 2
Description: Stock compounds were dissolved and stored in 100% DMSO. Compound solutions were prepared via serial dilution at 3-fold intervals in DMSO with top compound concentration at […] in each assay. 0.25 μl of compound solution was transferred from the compound plate to the assay plate by using an acoustic dispenser. Final assay conditions: • Total reaction volume: 25 μl • Assay buffer: […] pH 7.4, 200 mM NaCl, 2 mM CaCl2, 5 mM DTT • 35 nM recombinant human PAD4 • 500 µM TSTGGRQGSHH (SEQ ID NO: 1) • 1.2% DMSO • Stop solution: 10% formic acid
Reaction mixtures were incubated at room temperature for 30 minutes. 10 μl each of the reaction mixtures was then mixed with 40 μl of 10% formic acid in a microtiter plate. The plate was frozen at −80° C. before shipping out on dry ice for RapidFire mass spectroscopy analysis.
Thawed samples were loaded onto the Rapid Fire 300 system (Agilent) wherein they were first sipped for 250 ms and then loaded onto a Agilent “C” (C18) cartridge using a mobile phase of water containing 0.09% formic acid/0.01% trifluoroacetic acid for 3000 ms desalting flowing at a rate of 1.5 ml/min. Once the samples were loaded and washed, a mobile phase of acetonitrile containing 0.09% formic acid/0.01% trifluoroacetic acid was used to elute the samples directly onto a Sciex API4000 triple quadrupole mass spectrometer for 3000 ms at a flow rate of 1.25 ml/min.
MRM transitions for substrate and product were monitored in positive ESI mode at m/z=562.3/969.7 and m/z=562.8/541.3 respectively. The dwell time for each transition was set at 100 ms, and the ESI voltage was used at 5500 with a source temperature of 650° C. Extracted ion peaks for each transition were integrated using the Rapid Fire Integrator software.

[2] = molecular target: T1, hPAD4 enzyme; assay: RFMS Assay 1 (rapid-fire mass spectrum PAD4 inhibition assay, BAEE substrate); assay type: biochemical; conditions: 5 nM hPAD4 enzyme, 250 μM BAEE, 30 mins compound and enzyme preincubation at 37° C., 90 min enzyme/substrate reaction
Description: Compounds were solubilized in 100% DMSO to achieve a 10 mM compound concentration. Compound stock solutions were stored at RT. A series of dilutions were prepared in DMSO and mixed 8 times with 20 μL mixing volume. Final top concentration of compound in the assay is 50 μM. Final assay conditions were as follows: • Reaction volume: 26 μl • Assay buffer: 25 mM hepes, pH 7.5, 5 mM NaCl, 1 mM DTT, 0.2 mg/ml BSA, 0.01% CHAPS, 50 μM Calcium, and 5 μM TPEN • Final concentrations: 5 nM hPAD4 enzyme, 250 μM BAEE, and 0.5% DMSO • Total incubation time: 30 mins compound and enzyme preincubation at 37° C., 90 min enzyme/substrate reaction, 30 min reaction with phenyl glyoxal at 37° C. • Stop solution: 40 μl 5% TCA in ACN
0.13 μL of compound solution was added to 13 μL of 10 nM PAD4 in assay buffer. After 30 min 13 μl of 500 μM of BAEE was added in 25 mM hepes, pH 7.5, 5 mM NaCl, 1 mM DTT, 0.2 mg/ml BSA, 0.01% CHAPS, 50 µM Calcium, […] was added and the reaction incubated for 90 min at 37° C. The enzymatic reaction was quenched by addition of 15 μl of 6.1N TCA, 100% Final Concentration is 20%, 35 μl of 8.5 mM phenyl glyoxal (final concentration 4 mM) is then added and the reaction is incubated for 30 min at 37° C.
After 30 minutes the plates are spun down to remove all precipitate. The enzyme reaction was quenched with an equal volume of methanol containing internal standard (modified citrulline). Samples were loaded onto the Rapid Fire RF300 system (Agilent) wherein they were first sipped for 1000 ms and then directly loaded to a C18 separations cartridge using a mixture of acetonitrile containing 0.01% formic acid for 3000 ms desalting. The flow rate of the mobile phase was 1.5 ml/min. Once the samples were eluted from the cartridge, a mobile phase of acetonitrile containing 0.01% formic acid was used to move the samples into the mass spectrometer for 4000 ms at a flow rate of 1.25 ml/min/Sciex AP15500 triple quadrupole mass spectrometer (Applied Biosystems) equipped with ESI was used to analyze the peptidyl citrulline and internal standard ions.
MRM transition of product and internal standard were monitored at m/z 424.5 to 350.4 and m/z 293 to 247 respectively. The dwell time for each transition was set at 200 ms, and the ESI voltage was used at 5500 with a source temperature of 400° C. Extracted ion peaks for each transition were integrated using the Rapid Fire Integrator software. Peak area of analyte was normalized with internal standard.).

T1 sequence (Q9UM07 whole entry): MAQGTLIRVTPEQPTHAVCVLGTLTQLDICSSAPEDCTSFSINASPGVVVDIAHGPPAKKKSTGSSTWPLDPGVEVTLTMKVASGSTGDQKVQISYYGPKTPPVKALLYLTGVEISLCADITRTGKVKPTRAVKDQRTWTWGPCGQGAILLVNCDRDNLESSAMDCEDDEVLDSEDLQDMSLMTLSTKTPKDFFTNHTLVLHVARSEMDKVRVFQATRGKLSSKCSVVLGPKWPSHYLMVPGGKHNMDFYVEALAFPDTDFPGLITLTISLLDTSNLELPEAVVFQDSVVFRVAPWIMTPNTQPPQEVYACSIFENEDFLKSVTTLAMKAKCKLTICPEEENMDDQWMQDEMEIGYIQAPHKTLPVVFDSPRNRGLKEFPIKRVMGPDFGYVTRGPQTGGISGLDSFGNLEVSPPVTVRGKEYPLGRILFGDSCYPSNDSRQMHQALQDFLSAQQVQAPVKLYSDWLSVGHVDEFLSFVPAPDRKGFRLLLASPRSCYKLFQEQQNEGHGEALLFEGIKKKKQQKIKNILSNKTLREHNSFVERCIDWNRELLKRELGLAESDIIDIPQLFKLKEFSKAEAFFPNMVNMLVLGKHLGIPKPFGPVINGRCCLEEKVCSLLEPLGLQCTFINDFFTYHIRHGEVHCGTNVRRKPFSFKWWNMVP

| SMILES | IC50 [1] [nM] | IC50 [2] [nM] |
| --- | --- | --- |
| CC(Cc1cnco1)Oc1cc(F)cc2cc(-c3nc4cc5c(nc4n3C)CCN(C[C@H](N)CF)C5=O)n(CC3CC3)c12 (single isomer, unassigned) [Example 64] | 101 to 500 |  |
| CC(Cc1cnco1)Oc1cc(F)cc2cc(-c3nc4cc5c(nc4n3C)CCN(C[C@H](N)CF)C5=O)n(CC3CC3)c12 (single isomer, unassigned) [Example 65b] | 101 to 500 |  |
| COc1cccc2cc(-c3nc4cc5c(nc4n3C)CCN(C[C@H](N)CF)C5=O)n(Cc3oncc3C)c12 [Example 9, (S)-7-(2-amino-3-fluoropropyl)-2-(7-methoxy-1-((4-methylisoxazol-5-yl)methyl)-1H-indol-2-yl)-3-methyl-3,5,6,7-tetrahydro-8H-imidazo[4,5-b][1,6]naphthyridin-8-one] | 101 to 500 |  |
| COc1cccc2cc(-c3nc4cc5c(nc4n3C)CCN(C[C@H](N)CF)C5=O)n(Cc3ncc(C)s3)c12 [Example 10, (S)-7-(2-amino-3-fluoropropyl)-2-(7-methoxy-1-((5-methylthiazol-2-yl)methyl)-1H-indol-2-yl)-3-methyl-3,5,6,7-tetrahydro-8H-imidazo[4,5-b][1,6]naphthyridin-8-one] | > 1000 |  |
| COc1cccc2cc(-c3nc4cc5c(nc4n3C)CCN(C[C@H](N)CF)C5=O)n(Cc3nc(C)co3)c12 [Example 13, (S)-7-(2-amino-3-fluoropropyl)-2-(7-methoxy-1-((4-methyloxazol-2-yl)methyl)-1H-indol-2-yl)-3-methyl-3,5,6,7-tetrahydro-8H-imidazo[4,5-b][1,6]naphthyridin-8-one] | 501 to 1000 |  |
| Cc1cccc2cc(-c3nc4cc5c(nc4n3C)CCN(C[C@H](N)CF)C5=O)n(Cc3ccno3)c12 [Example 17, (S)-7-(2-amino-3-fluoropropyl)-2-(1-(isoxazol-5-ylmethyl)-7-methyl-1H-indol-2-yl)-3-methyl-3,5,6,7-tetrahydro-8H-imidazo[4,5-b][1,6]naphthyridin-8-one] | 501 to 1000 |  |
| COc1ccc2cc(-c3nc4cc5c(nc4n3C)CCN(C[C@H](N)CF)C5=O)n(CC3CC3)c2c1 [Example 18, (S)-7-(2-amino-3-fluoropropyl)-2-(1-(cyclopropylmethyl)-6-methoxy-1H-indol-2-yl)-3-methyl-3,5,6,7-tetrahydro-8H-imidazo[4,5-b][1,6]naphthyridin-8-one] | 501 to 1000 |  |
| Cn1c(-c2cc3cccc(NC(=O)Cn4ccnc4)c3n2CC2CC2)nc2cc3c(nc21)CCN(C[C@H](N)CF)C3=O [Example 100, (S)—N-(2-(7-(2-amino-3-fluoropropyl)-3-methyl-8-oxo-5,6,7,8-tetrahydro-3H-imidazo[4,5-b][1,6]naphthyridin-2-yl)-1-(cyclopropylmethyl)-1H-indol-7-yl)-2-(1H-imidazol-1-yl)acetamide] |  | 501 to 1000 |

Results, then the molecule that gave them:

| IC50 [1] [nM] | IC50 [2] [nM] | SMILES |
| --- | --- | --- |
| 501 to 1000 |  | Cn1c(-c2cc3cccc(OCC4CC(=O)NC4(C)C)c3n2CC2CC2)nc2cc3c(nc21)CCN(C[C@H](N)CF)C3=O (stereo partly drawn) [Example 35, 7-((S)-2-amino-3-fluoropropyl)-2-(1-(cyclopropylmethyl)-7-((2,2-dimethyl-5-oxopyrrolidin-3-yl)methoxy)-1H-indol-2-yl)-3-methyl-3,5,6,7-tetrahydro-8H-imidazo[4,5-b][1,6]naphthyridin-8-one] |
| > 1000 |  | Cn1c(-c2cc3cccc(OC[C@H]4CCC(=O)NC4)c3n2CC2CC2)nc2cc3c(nc21)CCN(C[C@H](N)CF)C3=O [Example 36, 7-((S)-2-amino-3-fluoropropyl)-2-(1-(cyclopropylmethyl)-7-(((S)-6-oxopiperidin-3-yl)methoxy)-1H-indol-2-yl)-3-methyl-3,5,6,7-tetrahydro-8H-imidazo[4,5-b][1,6]naphthyridin-8-one] |
|  | 101 to 500 | C[C@H](COc1cccc2cc(-c3nc4cc5c(nc4n3C)CCN(C[C@H](N)CF)C5=O)n(CC3CC3)c12)n1cnc(C#N)c1 [Example 91, 1-((R)-1-((2-(7-((S)-2-amino-3-fluoropropyl)-3-methyl-8-oxo-5,6,7,8-tetrahydro-3H-imidazo[4,5-b][1,6]naphthyridin-2-yl)-1-(cyclopropylmethyl)-1H-indol-7-yl)oxy)propan-2-yl)-1H-imidazole-4-carbonitrile] |
|  | 11 to 100 | Cn1c(-c2cc3cccc(OCCn4cnc(Cl)n4)c3n2CC2CC2)nc2cc3c(nc21)CCN(C[C@H](N)CF)C3=O [Example 92, (S)-7-(2-amino-3-fluoropropyl)-2-(7-(2-(3-chloro-1H-1,2,4-triazol-1-yl)ethoxy)-1-(cyclopropylmethyl)-1H-indol-2-yl)-3-methyl-3,5,6,7-tetrahydro-8H-imidazo[4,5-b][1,6]naphthyridin-8-one] |
|  | 11 to 100 | Cn1c(-c2cc3cccc(OCCn4ccnc4Cl)c3n2CC2CC2)nc2cc3c(nc21)CCN(C[C@H](N)CF)C3=O [Example 93, (S)-7-(2-amino-3-fluoropropyl)-2-(7-(2-(2-chloro-1H-imidazol-1-yl)ethoxy)-1-(cyclopropylmethyl)-1H-indol-2-yl)-3-methyl-3,5,6,7-tetrahydro-8H-imidazo[4,5-b][1,6]naphthyridin-8-one] |
|  | 101 to 500 | C[C@H](COc1cccc2cc(-c3nc4cc5c(nc4n3C)CCN(C[C@H](N)CF)C5=O)n(CC3CC3)c12)n1cncc1C#N [Example 94, 1-((R)-1-((2-(7-((S)-2-amino-3-fluoropropyl)-3-methyl-8-oxo-5,6,7,8-tetrahydro-3H-imidazo[4,5-b][1,6]naphthyridin-2-yl)-1-(cyclopropylmethyl)-1H-indol-7-yl)oxy)propan-2-yl)-1H-imidazole-5-carbonitrile] |
|  | 11 to 100 | Cn1c(-c2cc3cccc(/C=C/Cn4cnc(F)c4)c3n2CC2CC2)nc2cc3c(nc21)CCN(C[C@H](N)CF)C3=O [Example 97, (S,E)-7-(2-amino-3-fluoropropyl)-2-(1-(cyclopropylmethyl)-7-(3-(4-fluoro-1H-imidazol-1-yl)prop-1-en-1-yl)-1H-indol-2-yl)-3-methyl-3,5,6,7-tetrahydro-8H-imidazo[4,5-b][1,6]naphthyridin-8-one] |
|  | 101 to 500 | Cn1c(-c2cc3cccc(/C=C/Cn4cncc4F)c3n2CC2CC2)nc2cc3c(nc21)CCN(C[C@H](N)CF)C3=O [Example 98, (S,E)-7-(2-amino-3-fluoropropyl)-2-(1-(cyclopropylmethyl)-7-(3-(5-fluoro-1H-imidazol-1-yl)prop-1-en-1-yl)-1H-indol-2-yl)-3-methyl-3,5,6,7-tetrahydro-8H-imidazo[4,5-b][1,6]naphthyridin-8-one] |
|  | 11 to 100 | Cn1c(-c2cc3cccc(CCCn4cnc(F)c4)c3n2CC2CC2)nc2cc3c(nc21)CCN(C[C@H](N)CF)C3=O [Example 99, (S)-7-(2-amino-3-fluoropropyl)-2-(1-(cyclopropylmethyl)-7-(3-(4-fluoro-1H-imidazol-1-yl)propyl)-1H-indol-2-yl)-3-methyl-3,5,6,7-tetrahydro-8H-imidazo[4,5-b][1,6]naphthyridin-8-one] |
